Tests used:
5HT1A = target: T1, 5HT1A (Homo sapiens, UniProt P08908); assay: Competitive radioligand binding, 5HT1A; details: HEK293 membranes, 3H-8-OH-DPAT 0.5 nM; read-out: pIC50 5HT1A (converted)
T1 construct: expressed in transfected cells; host or cells: HEK293 (membrane fraction)
T1 sequence (P08908 1-422): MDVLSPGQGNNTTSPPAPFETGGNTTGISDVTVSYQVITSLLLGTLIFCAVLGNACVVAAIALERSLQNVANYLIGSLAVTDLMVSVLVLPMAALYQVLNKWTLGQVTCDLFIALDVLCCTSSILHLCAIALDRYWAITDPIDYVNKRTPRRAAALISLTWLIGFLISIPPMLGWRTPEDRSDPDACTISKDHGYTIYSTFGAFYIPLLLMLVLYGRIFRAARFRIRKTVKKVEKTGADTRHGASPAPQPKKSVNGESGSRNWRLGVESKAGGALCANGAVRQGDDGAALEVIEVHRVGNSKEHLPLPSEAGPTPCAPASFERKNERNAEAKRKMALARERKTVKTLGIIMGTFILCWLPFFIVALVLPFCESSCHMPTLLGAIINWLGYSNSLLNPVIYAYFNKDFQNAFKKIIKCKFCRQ
Protocol: (§1) Competitive radioligand binding assays were used to determine the affinity of the test compounds for a particular receptor. Various concentrations of the non-labelled test compound were added to the incubation mixture with the membrane fraction, containing the receptor of interest, and a fixed low concentration (nM) of the radioligand. During the incubation the radioligand bound to the receptor, but this was inhibited by the non-labelled test compound in proportion to its binding affinity and concentration.
(§2) Cell lines were established that stably express the human variant of the receptor under investigation after transfection with the appropriate cDNA (Table 1). Transfected cells were grown under standard culture conditions, and membrane fractions were obtained upon centrifugation and homogenisation of the cells. Optimal membrane dilutions for binding studies were determined and aliquots were stored at −70° C. until use. In a 96-well plate format, the appropriate radioligand was added to the membrane preparation containing the receptor under investigation. Compound solutions were prepared in DMSO, and diluted 100-fold into the multiwell plate to a final test concentration of 10^−9 to 10^−5 M. After incubation with the test compound, the unbound radioligand was removed by filtration on G/F filters with a Filtermate 96. Microscint™ was added to the washed filter plates and the radioactivity bound to the receptor was measured by liquid scintillation counting in a TopCount (Packard). To measure the Non-Specific Binding (NSB), a high concentration of the non-radiolabeled ligand was added to wells containing the membrane fraction and the radioligand.
(§3) Using in house developed software, a best-fit curve was fitted by a minimum sum of squares method to the plot of % inhibition vs. concentration of the test compound. From this, the pIC50 value (inhibitory concentration causing 50% displacement of specific binding) was determined, as well as an estimate of the slope of the plot (Hill coefficient).

5HT3A/B = target: T2, 5HT3A/B (Homo sapiens, UniProt O95264+P46098); assay: Competitive radioligand binding, 5HT3A/B; details: HEK293 membranes, 3H-GR65630 0.5 nM; read-out: pIC50 5HT3A/B (converted)
T2 construct: expressed in transfected cells; host or cells: HEK293 (membrane fraction)
T2 sequence (P46098 24-478): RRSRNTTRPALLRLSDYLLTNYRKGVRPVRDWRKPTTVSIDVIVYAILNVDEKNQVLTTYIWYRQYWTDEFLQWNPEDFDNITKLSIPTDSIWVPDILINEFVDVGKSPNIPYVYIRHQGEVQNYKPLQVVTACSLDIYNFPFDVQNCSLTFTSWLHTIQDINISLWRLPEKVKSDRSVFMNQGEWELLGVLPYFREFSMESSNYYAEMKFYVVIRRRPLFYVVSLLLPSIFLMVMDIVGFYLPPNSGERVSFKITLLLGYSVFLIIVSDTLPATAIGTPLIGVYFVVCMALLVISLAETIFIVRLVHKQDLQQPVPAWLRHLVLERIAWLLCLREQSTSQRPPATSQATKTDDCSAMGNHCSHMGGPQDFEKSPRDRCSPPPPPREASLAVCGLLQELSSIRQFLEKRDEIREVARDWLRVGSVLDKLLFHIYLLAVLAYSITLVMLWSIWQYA
T2 sequence (O95264 22-441): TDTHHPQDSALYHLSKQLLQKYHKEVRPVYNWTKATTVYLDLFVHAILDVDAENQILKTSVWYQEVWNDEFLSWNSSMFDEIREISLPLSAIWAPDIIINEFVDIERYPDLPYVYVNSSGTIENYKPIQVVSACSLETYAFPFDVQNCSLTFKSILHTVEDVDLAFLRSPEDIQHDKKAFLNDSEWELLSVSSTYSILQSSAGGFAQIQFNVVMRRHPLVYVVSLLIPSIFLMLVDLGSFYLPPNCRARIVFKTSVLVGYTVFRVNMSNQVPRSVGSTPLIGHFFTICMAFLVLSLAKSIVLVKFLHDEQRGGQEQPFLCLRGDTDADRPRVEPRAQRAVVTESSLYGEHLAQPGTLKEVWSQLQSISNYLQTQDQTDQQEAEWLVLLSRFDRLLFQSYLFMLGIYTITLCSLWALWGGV
Protocol: as §1, §2, §3

Alpha1A = target: T3, Alpha1A (Homo sapiens, UniProt P35348); assay: Competitive radioligand binding, Alpha1A; details: CHO membranes, 3H-prazosin 0.25 nM; read-out: pIC50 Alpha1A (converted)
T3 construct: expressed in transfected cells; host or cells: CHO (membrane fraction)
T3 sequence (P35348 1-466): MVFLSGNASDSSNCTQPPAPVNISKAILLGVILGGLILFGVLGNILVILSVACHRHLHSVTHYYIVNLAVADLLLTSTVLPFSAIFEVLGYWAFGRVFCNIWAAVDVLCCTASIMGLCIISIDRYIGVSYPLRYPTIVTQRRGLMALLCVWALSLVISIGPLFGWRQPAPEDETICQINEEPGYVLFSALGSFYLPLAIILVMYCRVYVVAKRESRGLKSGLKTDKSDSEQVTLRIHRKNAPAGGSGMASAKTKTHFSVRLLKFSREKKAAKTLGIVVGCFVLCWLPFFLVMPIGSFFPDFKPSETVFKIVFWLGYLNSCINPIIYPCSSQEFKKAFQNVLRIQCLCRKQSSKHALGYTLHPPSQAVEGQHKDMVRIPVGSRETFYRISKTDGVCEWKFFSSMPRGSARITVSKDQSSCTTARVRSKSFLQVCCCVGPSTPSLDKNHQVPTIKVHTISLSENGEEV
Protocol: as §1, §2, §3

D2L = target: T4, D2L (Homo sapiens, UniProt P14416); assay: Competitive radioligand binding, D2L; details: CHO membranes, 3H-spiperone 0.2 nM; read-out: pIC50 D2L (converted)
T4 construct: expressed in transfected cells; host or cells: CHO (membrane fraction)
Protocol: as §1, §2, §3

anesthetized guinea-pig = assay: Cardiovascular effects in the anaesthetized guinea-pig; assay type: in vivo; details: guinea pig, 0.02 mg/kg i.v. over 1 min, 15 min after onset of last vehicle infusion
Protocol: Female guinea-pigs were anesthetized with sodium pentobarbital (66 mg/kg i.p.) followed by a continuous i.v. infusion of 6 mg/h of sodium pentobarbital and prepared for measurements of the surface electrocardiogram (ECG), heart rate and mean arterial blood pressure (see De Clerck et al, Fundam. Clin. Pharm.; 2002; 16: 125-140). Compound (−)-17 was dissolved in 20% hydroxypropyl-cyclodextrin with NaOH, HCl and mannitol in pyrogen-free water and administered intravenously (0.5 ml/kg) in increasing doses (0.16, 0.32, 0.64, 1.25, 2.5 and 5 mg/kg) over a period of 5 min at 15-min intervals. Plasma concentrations of Compound (−)-17 were measured at the end of each infusion. Corresponding volumes of vehicle were administered according to the same protocol in a second group of animals.

T4 sequence (P14416 whole entry): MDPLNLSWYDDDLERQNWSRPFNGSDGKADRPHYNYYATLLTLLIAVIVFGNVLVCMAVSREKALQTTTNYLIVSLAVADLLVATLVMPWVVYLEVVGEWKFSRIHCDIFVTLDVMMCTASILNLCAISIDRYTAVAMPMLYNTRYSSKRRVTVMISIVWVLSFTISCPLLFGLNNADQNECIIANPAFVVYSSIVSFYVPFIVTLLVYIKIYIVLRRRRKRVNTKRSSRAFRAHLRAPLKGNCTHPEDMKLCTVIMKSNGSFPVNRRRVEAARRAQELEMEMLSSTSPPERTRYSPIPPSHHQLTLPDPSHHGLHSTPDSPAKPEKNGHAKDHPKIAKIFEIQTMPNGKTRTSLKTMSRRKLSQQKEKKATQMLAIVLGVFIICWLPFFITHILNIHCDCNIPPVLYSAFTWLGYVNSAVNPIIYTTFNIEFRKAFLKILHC

IC50 (5HT1A) [nM]	IC50 (5HT3A/B) [nM]	IC50 (Alpha1A) [nM]	IC50 (D2L) [nM]	Compound	heart rate (anesthetized guinea-pig)
1950	1150	407	537	COc1cc(N)c(Cl)cc1C(=O)NC1CCN(CCCOc2ccc(F)cc2)CC1OC (centres unmarked) [Cisapride, reference compound]	–
–	–	–	–	CN(CCOc1ccc(NS(C)(=O)=O)cc1)CCc1ccc(NS(C)(=O)=O)cc1 [dofetilide, reference compound]	decreased

Source: patent publication US9139523B2, “5-HT2B receptor antagonists” (Janssen Pharmaceutica, NV, priority 2010, dated 2015)
